Reference: article PMC12064818, “A general assay platform to study protein pharmacology using ligand-dependent structural dynamics” (Nature Communications, 2025)

Biological target: T1, FLuc-C-HiBiT (Photinus pyralis, UniProt P08659)
T1 construct: firefly luciferase with C-terminal HiBiT tag, E. coli expressed
Test: biochemical
Details: enzyme activity, 10 uM ATP; read-out: IC50 or SDR50 (mM) / FLuc E

T1 sequence (P08659 whole entry, looked up): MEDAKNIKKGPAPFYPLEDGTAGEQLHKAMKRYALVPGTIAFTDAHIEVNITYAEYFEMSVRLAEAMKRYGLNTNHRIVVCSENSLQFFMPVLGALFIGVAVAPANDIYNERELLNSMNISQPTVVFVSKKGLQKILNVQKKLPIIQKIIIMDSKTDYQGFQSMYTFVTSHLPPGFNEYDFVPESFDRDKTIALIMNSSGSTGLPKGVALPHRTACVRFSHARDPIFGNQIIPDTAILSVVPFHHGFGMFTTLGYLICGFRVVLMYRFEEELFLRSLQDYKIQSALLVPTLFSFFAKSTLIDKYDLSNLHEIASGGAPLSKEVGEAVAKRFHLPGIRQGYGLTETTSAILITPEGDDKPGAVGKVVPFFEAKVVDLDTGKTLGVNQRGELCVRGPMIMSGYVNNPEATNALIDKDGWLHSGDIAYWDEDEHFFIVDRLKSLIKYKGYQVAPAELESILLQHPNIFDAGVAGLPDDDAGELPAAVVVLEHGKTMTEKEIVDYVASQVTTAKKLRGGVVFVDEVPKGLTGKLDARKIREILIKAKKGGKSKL

Row | SMILES | IC50
1 | COc1ccc(-c2nc3ncccc3[nH]2)cc1 [NCGC00375673-01] | 16 µM
2 | CCc1ccccc1NC(=O)c1cc2c(=O)[nH]c(C)cn2n1 [NCGC00453924-01] | 15.7 µM
3 | O=C1NCCCCCCN(C(=O)Nc2ccc3c(c2)OCCO3)[C@H]2CCC[C@@H]12 [NCGC00465105-01] | 3.51 µM
4 | Cc1ccc(CNC(=O)c2ccc3c(c2)CN(Cc2cnn(C)c2C)CCO3)cc1 [NCGC00426362-01] | > 30 µM
5 | CCCc1ccc2oc(C(=O)NCCc3nncn3CC)c(C)c2c1 [NCGC00436423-01] | 12.4 µM
6 | COc1ccc(C(=O)Nc2ccc(-c3nc4ccccc4s3)c(Cl)c2)cc1Cl [NCGC00102002-01] | > 30 µM
7 | O=C([C@@H]1C[C@@H](O)[C@H](O)[C@@H]2NC(=S)N(c3ccc4c(c3)OCO4)[C@@H]21)N1CCOCC1 [NCGC00397934-01] | 14.3 µM
8 | COc1ccc2cc(C3CN(C(=O)CNC(=O)C(C)C)CCO3)ccc2c1 (stereo not drawn) [NCGC00430625-01] | 12.4 µM
9 | COc1cc(F)ccc1-c1ccc(COc2ccc3c(cnn3CCC(=O)O)c2)cc1 [NCGC00418071-01] | 18 µM
10 | COc1ccc(C(=O)Nc2cc([S+](=O)([O-])c3ccc(Cl)cc3)c(O)c(C)c2C)cc1 [NCGC00102574-01] | > 30 µM
11 | COc1ccc(C(=O)COC(=O)CCCC(=O)Nc2ccc(C(C)=O)cc2)cc1 [NCGC00100762-01] | 9.89 µM
12 | COc1cc(OC)c(NC(=O)Cn2c(SCc3ccccc3F)nc3cccnc32)cc1Cl [NCGC00124034-02] | > 30 µM
13 | COc1ccc2nc(-c3ccc(N4CCN(C(=O)OC(C)(C)C)CC4)cc3)sc2c1 [NCGC00167609-02] | 14 µM
14 | Cc1noc(C)c1CN1CCc2nc(C(=O)Nc3ccccc3)oc2CC1 [NCGC00413386-01] | > 30 µM
15 | Cc1cnc(NC(=O)c2ccc3c(c2)OCC(=O)N(C)C3)s1 [NCGC00418511-01] | 14.3 µM
16 | Cc1ncc(C(=O)NCc2ccc3[nH]c(-c4ccccc4F)c(C)c3c2)c(C)n1 [NCGC00435925-01] | 7.85 µM
17 | CC(C)(C)c1ccc(C(=O)Nc2ccc([C@H]3OCC(=O)N[C@@H]3CO)cc2)cc1 [NCGC00396656-01] | 16.1 µM
18 | O=C(O)c1ccc(-c2noc(-c3cccc(F)c3)n2)cc1 [NCGC00168097-02] | 4.95 µM
19 | CCC(=O)NCCC1CCN(C(=O)Nc2ccc(C)cc2)CC1 [NCGC00424867-01] | 12.4 µM
20 | CN1CCc2nc3sc(C(=O)Nc4cccc(C#N)c4)c(N)c3cc2C1 [NCGC00103003-01] | > 30 µM
21 | Cc1ccc(-c2cc3c(=O)n(CCNC(=O)c4ccccc4F)ccn3n2)c(C)c1 [NCGC00456982-01] | 7 µM

Row | SMILES | IC50
22 | CN1c2cc(C(=O)Nc3cccc(Cl)c3)ccc2C(=O)N2CCCCCC21 (stereo not drawn) [NCGC00452209-01] | 17.6 µM
23 | Cc1ccccc1-c1cccc(COc2cnc3c(ccn3CC(=O)O)c2)c1 [NCGC00418175-01] | 18 µM
24 | Cc1ccc2nc(C(=O)N3CCCC3c3cc(C(C)C)on3)cn2c1 (stereo not drawn) [NCGC00437737-01] | 15.7 µM
25 | O=C1CCC2(C(=O)NCCc3ccccc3)CCCC=C2N1c1ccccc1 (stereo not drawn) [NCGC00472135-01] | 15.7 µM
26 | Clc1cccc(-c2nc3ccccc3s2)c1 [NCGC00687703-01] | 8.81 µM
27 | COc1cccc(-c2nc3cc(NC(=O)c4ccc(C)c([N+](=O)[O-])c4)ccc3s2)c1 [NCGC00348177-01] | > 30 µM
28 | CN(Cc1nccs1)c1ccc(-c2nc(-c3ccccc3F)no2)cn1 [NCGC00425298-01] | 9.89 µM
29 | O=C(Nc1ccccc1-c1nc2ccccc2s1)c1ccc(F)cc1 [NCGC00102555-01] | > 30 µM
30 | O=C(Nc1ccc(-c2nc3ccccc3s2)cc1)c1c(F)c(F)c(F)c(F)c1F [NCGC00598374-01] | > 30 µM
31 | COc1ccc(C(=O)Nc2ccc3n(c2=O)C[C@H]2C[C@@H]3CN(C(=O)CCCC(=O)O)C2)cc1 [NCGC00397987-01] | 15.7 µM
32 | Cc1cnc(CCNC(=O)Nc2ccc3c(c2)OCCO3)n1C1CC1 [NCGC00469576-01] | 11.1 µM
33 | COc1ccc(-c2cc(N3CCCC(NC(=O)c4ccc5ncccc5c4)C3)[nH]n2)cc1 (stereo not drawn) [NCGC00437712-01] | 3.94 µM
34 | FC(F)(F)c1cc(-c2nc3ccccc3s2)cc(C(F)(F)F)c1 [NCGC00167627-01] | 12.4 µM
35 | Cc1cccc(-c2cccc(NC(=O)C3CCCN(C(=O)CC(F)(F)F)C3)c2)c1 (stereo not drawn) [NCGC00425452-01] | > 30 µM
36 | CN1CC(=O)N(C2CCCC2)Cc2c1ncnc2N1CCOCC1 [NCGC00480226-01] | > 30 µM
37 | COc1cccc(-n2nnc(-c3nc(-c4ccccc4F)no3)c2C)c1 [NCGC00128608-01] | 5.56 µM
38 | Cn1ccc2c(C(=O)NCc3cccnc3)nc(-c3ccc(N4CCOCC4)cc3)cc21 [NCGC00411612-01] | 18 µM
39 | Cc1ccc(NC(=O)Nc2ccc(C)n(CC(=O)NCCC(C)C)c2=O)cc1 [NCGC00430794-01] | 1.11 µM
40 | c1ccc(CCCc2noc(-c3ccc(NCc4ccccn4)nc3)n2)cc1 [NCGC00440648-01] | > 30 µM
41 | Oc1cc(-c2nc3ccccc3s2)cc2c1OCCN(Cc1c[nH]nc1-c1ccc(Cl)cc1)C2 [NCGC00240676-01] | > 30 µM
42 | COc1ccc(-c2cc(N3CCCC(NC(=O)c4ccc(OC)c(OC)c4)C3)[nH]n2)cc1 (stereo not drawn) [NCGC00437624-01] | 3.94 µM

Row | SMILES | IC50
43 | COCCN1CCC2(C1)CN(C)c1ccc(C(=O)Nc3ccn(C)n3)cc12 (stereo not drawn) [NCGC00419376-01] | 10.1 µM
44 | CC(C)(CC(=O)O)CC(=O)N1Cc2nc[nH]c2C[C@H]1c1nc(Cc2ccccc2)no1 [NCGC00396501-01] | > 30 µM
45 | COc1cccc(CN2CCc3nc(C(=O)Nc4nc(C)cs4)oc3CC2)c1 [NCGC00413306-01] | 18 µM
46 | COCC1CCN(c2ccc(-c3nc(-c4ccccc4C)no3)cn2)C1 (stereo not drawn) [NCGC00427117-01] | 17.6 µM
47 | CC(C)C(=O)Nc1cc(-c2nc3ccccc3s2)ccc1Cl [NCGC00596190-01] | > 30 µM
48 | O=C(Nc1cccnc1)c1nc2c(o1)CCN(Cc1ccc(O)cc1)CC2 [NCGC00413415-01] | 18 µM
49 | Cn1ccnc1CN1CCNc2cc(Nc3ccccc3)ncc2C1 [NCGC00411128-01] | 16.1 µM
50 | COCCOc1nc(N)c2[nH]c(=O)n(Cc3ccc(C(=O)O)cc3)c2n1 [NCGC00480851-01] | > 30 µM
51 | Cn1c(C(=O)Nc2ccc3c(c2)OCO3)cc2c1CCN(Cc1cccc(F)c1)C2 [NCGC00430636-01] | > 30 µM
52 | O=C(C1CCC1)N1c2ccccc2CC1c1noc(C2CCOCC2)n1 (stereo not drawn) [NCGC00471502-01] | 9.89 µM
53 | CC(=O)NC1(C)CN(Cc2ccc(-c3ccc(Oc4ccccc4)cc3)s2)C1 [NCGC00410351-01] | 25.5 µM
54 | CC(C)Oc1ccc(C(=O)Nc2nnc3n2CCS3)cc1 [NCGC00134921-01] | 17.6 µM
55 | CCOc1ccc2nc(NC(=O)c3ccccc3)sc2c1 [NCGC00099426-02] | 0.881 µM
56 | CN1CCN(c2ccc(-c3cc4c(ccn4C)c(C(=O)NCCN4CCNC4=O)n3)cc2)CC1 [NCGC00411611-01] | 12.4 µM
57 | COCCN1CCC2(C1)CN(C)c1ccc(C(=O)Nc3ccc(F)cc3)cc12 (stereo not drawn) [NCGC00419287-01] | 7.18 µM
58 | COc1ccc(NC(=O)Nc2cccc(-c3ccc(N4CCOCC4)nn3)c2)cc1Cl [NCGC00427610-01] | 1.24 µM
59 | COc1cccc(-c2nc3cc(NC(=O)c4ccc(F)c(C#N)c4)ccc3s2)c1 [NCGC00350766-01] | > 30 µM
60 | O=C(O)c1cccc(-c2noc(-c3ccc(C(F)(F)F)cc3)n2)c1 [NCGC00168770-01] | 0.00351 µM
61 | CC1CCN(c2ncnc3c2cnn3-c2ccc(F)cc2)CC1 [NCGC00139049-01] | 11.1 µM
62 | COCCNC(=O)[C@@H](C)C1CC[C@@]2(C)Cc3sc(CSc4ccccc4)nc3[C@@H](C)[C@@H]2[C@H]1O (stereo partly drawn) [NCGC00391430-01] | 11.1 µM
63 | COc1ccc(-c2nc3ccccc3s2)cc1NC(=O)c1cc(OC)c(OC)c(OC)c1 [NCGC00102099-01] | 1.57 µM

Row | SMILES | IC50
64 | Fc1ccc(Cc2cn3cc(-c4ccccc4)nc3s2)cc1 [NCGC00102102-01] | 0.442 µM
65 | O=c1[nH]cnc2c1ncn2[C@H]1CC[C@@H](CO)O1 [NCGC00090691-03] | > 30 µM
66 | CCOc1cc(C(=O)Nc2ccc(-c3nc4ccccc4s3)cc2Cl)cc(OCC)c1OCC [NCGC00137812-01] | 12.4 µM
67 | O=C(Nc1nc2c(F)cc(F)cc2s1)c1ccc2c(c1)OCCO2 [NCGC00134168-01] | 1.76 µM
68 | COc1cccc(CN2CCNc3cc(-c4ccnc(C)c4)ncc3C2)c1 [NCGC00411029-01] | 18 µM
69 | O=C(O)[C@@H]1CN(Cc2ccccc2)C[C@@H]1C(=O)N1CCc2ccccc21 [NCGC00464394-01] | > 30 µM
70 | COc1ccc(-c2cnc3[nH]cc(CC(=O)N4CCN(c5ccccn5)CC4)c3c2)cc1 [NCGC00412443-01] | 18 µM
71 | O=C(Cc1cccc(F)c1)N1CC(Oc2ccc(-c3nc(-c4ccccc4)no3)cc2)C1 [NCGC00441157-01] | 12.4 µM
72 | c1ccc(-c2noc(-c3nc(C4CC4)no3)n2)cc1 [NCGC00450069-01] | 9.89 µM
73 | CN(C(=O)OC(C)(C)C)c1ccc(-c2nc3ccccc3s2)cc1 [NCGC00167619-02] | 0.0989 µM
74 | Cc1cc(-c2nc3cc(F)ccc3s2)ccc1NC(=O)[C@@H](N)CCCCN [NCGC00379246-02] | 2.48 µM
75 | Cc1ccc(C(=O)Nc2onc3c2CCCC3)cc1 [NCGC00115902-01] | 0.989 µM
76 | CC(C)(C)C(=O)Nc1ccc(-c2nc3ccccc3s2)cc1 [NCGC00118992-01] | 0.0197 µM
77 | COc1ccc(C(=O)Nc2ccccc2-c2nc3ccccc3s2)cc1OC [NCGC00102625-01] | > 30 µM
78 | O=C(NCc1ccoc1)c1ccc2nc(-c3ccc(F)cc3)cn2c1 [NCGC00425034-01] | 11.1 µM
79 | Cc1nc(C)c(C(=O)N2CCC(Oc3ccc(-c4noc(-c5ccccc5)n4)cc3)C2)s1 (stereo not drawn) [NCGC00440995-01] | 11.1 µM
80 | c1ccc(Nc2ncc(-c3ccccc3)o2)cc1 [NCGC00242146-02] | 0.785 µM
81 | O=C(O)c1cccc(-c2noc(-c3ccccc3F)n2)c1 [NCGC00168759-10] | 0.00624 µM
82 | O=C(Nc1nc2ccccc2s1)c1ccc2c(c1)OCCN(CCC(F)(F)F)C2 [NCGC00418456-01] | 20.2 µM
83 | NC(=O)C1CCN(c2ncnc3c2cnn3-c2ccccc2)CC1 [NCGC00141852-02] | > 30 µM
84 | COc1ccc(-c2nc3ccccc3s2)cc1NC(=O)c1cccc(F)c1 [NCGC00141116-01] | > 30 µM
